According to patent publication US20040072865A1, “Aryl piperidine derivatives as inducers of ldl-receptor expression” (priority 2003, published 2004):
Like-named read-outs stand apart in the source and are kept apart here.

How the values were obtained:
[1] = system: fat-fed hamsters; assay: Oral administration to fat-fed hamsters, reduction in VLDL/LDL cholesterol and TG plasmatic levels; format: in vivo, hamster; settings: for ED50: Mesocricetus auratus, 72 h, fat-fed hamsters, oral, once a day for 3 days, reductions in VLDL/LDL cholesterol and TG plasmatic levels, read-out: In vivo (ED50)
Method: The in vivo profile of the compounds is evaluated by oral administration of the compounds of the invention to fat-fed hamsters. Measurements of VLDL/LDL cholesterol and triglycerides upon treatment allow to determine the activity.
Compounds were prepared for oral administration by milling with 0.5% hydroxypropylmethylcellulose and 5% Tween 80. Hamsters were fed for 2 weeks with a diet containing 0.2% of cholesterol and 10% of coconut oil. Then compounds were administrated once a day for 3 days, from 20 to 0.2 mg/kg. Plasma lipid levels including total cholesterol, VLDL/LDL cholesterol, VLDL/LDL triglycerides and HDL-cholesterol were determinated after ultracentrifugation (density 1.063 g/ml to separate VLDL/LDL fraction and HDL fraction) using the Biomerieux erizymatic kit. Reductions in VLDL/LDL cholesterol and TG plasmatic levels were calculated taking solvant treated animals as control and ED50 of each compound was determined.

[2] = system: LDL-r promoter; assay: LDL-r promoter luciferase reporter gene assay in stably transfected HepG2 cells; format: cell-based, human; settings: read-out: In vitro (IC50)

melting point [°C] | Compound | also measured
70 | Cc1ccc(C2CCN(CCCCNC(=O)c3ccc(-c4ccc(C#N)cc4)cc3)CC2)c(OP(=O)(O)O)c1 | –
158 to 160 | CCOP(=O)(OCC)Oc1cc(CC)ccc1C1CCN(CCCCNC(=O)c2ccc(NC(=O)c3ccc(Cl)cc3)cc2)CC1 | –
– | Cc1ccc(C2CCN(CCCCNC(=O)c3ccc(NC(=O)c4ccc(Cl)cc4)cc3)CC2)c(O)c1.Cl [Example 1, 4-(4-chloro-benzoylamino)-N-{4-[4-(5-methyl-2-piperidinyl-phenol)]-butyl}-benzamide Hydrochloride] | In vivo (ED50) ([1]; hamster, in vivo, po): 10 to 15 mg/kg; IC50 [2]: 30 nM
210 | CC(=O)Oc1cc(C)ccc1C1CCN(CCCCNC(=O)c2ccc(NC(=O)c3ccc(Cl)cc3)cc2)CC1 [Example 2, Acetic Acid 2-(1-{4-[4-(4-chloro-benzoylamino)-benzoylamino]-butyl}-piperidin-4-yl)-5-methyl-phenyl Ester] | ED50 [1]: 5 mg/kg
192 to 194 | CCc1ccc(C2CCN(CCCCNC(=O)c3ccc(NC(=O)c4ccc(Cl)cc4)cc3)CC2)c(OC(C)=O)c1 [Example 5, Acetic Acid 2-(1-{4-[4-(4-chloro-benzoylamino)-benzoylamino]-butyl}-piperidin-4-yl)-5-ethyl-phenyl Ester] | –
252 | CCc1ccc(C2CCN(CCCCNC(=O)c3ccc(-c4ccc(C#N)cc4)cc3)CC2)c(O)c1 [Example 6, 4′-Cyano-biphenyl-4-carboxylic Acid {4-[4-(2-hydroxy-4-ethyl-phenyl)-piperidin-1-yl]-butyl}-amide] | –
184 | Cc1ccc(C2CCN(CCCCNC(=O)c3ccc(-c4ccc(C#N)cc4)cc3)CC2)c(O)c1 [Example 20, 4′-Cyano-biphenyl-4-carboxylic Acid {4-[4-(2-hydroxy-4-methyl-phenyl)-piperidin-1-yl]-butyl}-amide] | –
128 to 130 | CC(=O)Oc1cc(C)ccc1C1CCN(CCCCNC(=O)c2ccc(-c3ccc(C#N)cc3)cc2)CC1 [Example 21, Acetic Acid 2-(1-{4-[(4′-cyano-biphenyl-4-carbonyl)-amino]-butyl}-piperidin-4-yl)-5-methyl-phenyl Ester] | –

Compound | melting point [°C] | also measured
CCOP(=O)(OCC)Oc1cc(C)ccc1C1CCN(CCCCNC(=O)c2ccc(NC(=O)c3ccc(Cl)cc3)cc2)CC1 [Example 3, Phosphoric Acid 2-(1-{4-[4-(4-chloro-benzoylamino)-benzoylamino]-butyl}-piperidin-4-yl)-5-methyl-phenyl Ester Diethyl Ester] | 230 | ED50 [1]: 5 mg/kg; IC50 ([2]; Homo sapiens, HepG2 cells with LDL-r promoter-luciferase construct, 24 hours incubation, induction of luciferase activity): 30 nM
